Converted amounts (≈) assume the structure as drawn. One block for each compound: values may come before it. The source made the active and inactive calls. The calls are words filed in the database; no cut-off is given here.
Legend:
[1] = target: T1, P2Y purinoceptor 14 (Homo sapiens) (UniProt Q15391); assay: Antagonist activity at human P2Y14R expressed in HEK293 cells assessed as inhibition of UDPG-induced Ca2+ level at 5 uM by Fluo-4 dye based fluorescence assay relative to control; type: functional, cell-based
T1 sequence (whole entry): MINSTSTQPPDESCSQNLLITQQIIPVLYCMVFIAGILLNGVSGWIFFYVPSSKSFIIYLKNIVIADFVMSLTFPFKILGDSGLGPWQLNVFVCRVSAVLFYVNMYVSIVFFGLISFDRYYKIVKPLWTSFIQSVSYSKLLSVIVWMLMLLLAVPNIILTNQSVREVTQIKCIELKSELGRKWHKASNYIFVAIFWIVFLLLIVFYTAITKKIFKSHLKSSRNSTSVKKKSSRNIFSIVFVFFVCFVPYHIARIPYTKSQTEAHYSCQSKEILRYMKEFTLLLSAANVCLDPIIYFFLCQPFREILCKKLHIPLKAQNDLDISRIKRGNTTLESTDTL

[2] = target: T2, P2Y purinoceptor 14 (Homo sapiens, UniProt Q15391); assay: Antagonist activity at human P2Y14R expressed in HEK293 cells assessed as inhibition of UDPG-induced Ca2+ level by Fluo-4 dye based fluorescence assay; type: functional, cell-based
T2 sequence (Q15391 whole entry): T1 sequence (whole entry)

[3] = Aqueous solubility of the compound in pH 7.4 PBS buffer measured after 24 hrs by shake flask method; type: physicochemical
[4] = Aqueous solubility of the compound in pH 4 PBS buffer measured after 24 hrs by shake flask method; type: physicochemical
[5] = target: T1, P2Y purinoceptor 14 (Homo sapiens); assay: (§1) Binding affinity to P2Y14R (unknown origin) assessed as increase in response unit by surface plasmon resonance assay; details: filed as antagonist
[6] = target: T2, P2Y purinoceptor 14; assay: as §1
[7] = Cmax in SD […] at 5 mg/kg, iv; type: ADME, organism-based; details: in vivo
[8] = Half life in SD […] at 5 mg/kg, iv; type: ADME, organism-based; details: in vivo
[9] = Tmax in SD […] at 5 mg/kg, iv; type: ADME, organism-based; details: in vivo
[10] = AUC (0 to 24 hrs) in SD […] at 5 mg/kg, iv; type: ADME, organism-based; details: in vivo
[11] = Cmax in SD […] at 10 mg/kg, po; type: ADME, organism-based; details: in vivo
[12] = Half life in SD […] at 10 mg/kg, po; type: ADME, organism-based; details: in vivo
[13] = Tmax in SD […] at 10 mg/kg, po; type: ADME, organism-based; details: in vivo
[14] = AUC (0 to 24 hrs) in SD […] at 10 mg/kg, po; type: ADME, organism-based; details: in vivo
[15] = Clearance in SD […] at 10 mg/kg, po; type: ADME, organism-based; details: in vivo
[16] = Oral bioavailability in SD […] at 10 mg/kg; type: ADME, organism-based; details: in vivo
[17] = system: Mus musculus; assay: (§2) Antiinflammatory activity in LPS-induced C57BL/6 mouse ALI model assessed as reduction in neutrophil infiltration at 2 mg/kg, po administered once daily via gavage for 7 days followed by endotoxin challenge at 1 hr post last dose and subsequent LPS stimulation and measured after 24 hrs by H and E staining based histopathological assay; type: functional, organism-based; details: time 8.0 day
[18] = system: Mus musculus; assay: as §2, with “interstitial hemorrhage” for “neutrophil infiltration”; type: functional, organism-based; details: time 8.0 day
[19] = system: Mus musculus; assay: as §2, with “in interstitial hemorrhage” for “in neutrophil infiltration”, “at 6” for “at 2”; type: functional, organism-based; details: time 8.0 day
[20] = system: Mus musculus; assay: as §2, with “in alveolar wall thickening” for “in neutrophil infiltration”, “at 6” for “at 2”; type: functional, organism-based; details: time 8.0 day
[21] = system: Mus musculus; assay: as §2, with “at 6” for “at 2”; type: functional, organism-based; details: time 8.0 day
[22] = system: Mus musculus; assay: as §2, with “as appearance of intact alveolar structures” for “as reduction in neutrophil infiltration”, “at 6” for “at 2”; type: functional, organism-based; details: time 8.0 day
[23] = system: Mus musculus; assay: as §2, with “inflammatory response in lung” for “neutrophil infiltration at 2 mg/kg, po”, “via oral” for “via”; type: functional, organism-based; details: dose 2-6 mg/kg, time 8.0 day
[24] = system: Mus musculus; assay: (§3) Antiinflammatory activity in LPS-induced C57BL/6 mouse ALI model assessed as reduction in IL-1beta expression in BALF at 2 to 6 mg/kg, po administered once daily via gavage for 7 days followed by endotoxin challenge at 1 hr post last dose and subsequent LPS stimulation and measured after 24 hrs by ELISA; type: functional, organism-based; details: dose 2-6 mg/kg, time 8.0 day
[25] = system: Mus musculus; assay: Antiinflammatory activity in LPS-induced C57BL/6 mouse ALI model assessed as reduction in IL-6 expression in BALF at 2 to 6 mg/kg, po administered once daily via gavage for 7 days followed by endotoxin challenge at 1 hr post last dose and subsequent LPS stimulation and measured after 24 hrs by ELISA; type: functional, organism-based; details: dose 2-6 mg/kg, time 8.0 day
[26] = system: Mus musculus; assay: as §3, with “TNF-alpha” for “IL-1beta”; type: functional, organism-based; details: dose 2-6 mg/kg, time 8.0 day
[27] = system: Mus musculus; assay: Antiinflammatory activity in LPS-induced C57BL/6 mouse ALI model assessed as reduction in MPO level in BALF at 6 mg/kg, po administered once daily via gavage for 7 days followed by endotoxin challenge at 1 hr post last dose and subsequent LPS stimulation and measured after 24 hrs by ELISA; type: functional, organism-based; details: time 8.0 day

SMILES: O=C(O)c1cc(NS(=O)(=O)Cc2ccc(F)cc2)cc(-c2ccc(C3CCNCC3)cc2)c1
inhibition ([1]; filed as antagonist): 82.8%

SMILES: COc1ccc(S(=O)(=O)Nc2cc(C(=O)O)cc(-c3ccc(C4CCNCC4)cc3)c2)cc1OC
inhibition [1]: 23.5%

SMILES: O=C(O)c1cc(NS(=O)(=O)c2ccc(-c3ccc([N+](=O)[O-])cc3)cc2)cc(-c2ccc(C3CCNCC3)cc2)c1
inhibition ([1]; filed as antagonist): 65.1%

SMILES: O=C(O)c1cc(NS(=O)(=O)c2ccc(-c3ccc(C(F)(F)F)cc3)cc2)cc(-c2ccc(C3CCNCC3)cc2)c1
inhibition ([1]; filed as antagonist): 76.5%

SMILES: O=C(O)c1cc(NS(=O)(=O)Cc2ccc(Br)cc2)cc(-c2ccc(C3CCNCC3)cc2)c1
inhibition ([1]; filed as antagonist): 83.1%

SMILES: O=C(O)c1cc(-c2ccc(C3CCNCC3)cc2)c2ccc(-c3ccc(C(F)(F)F)cc3)cc2c1 [PPTN]
solubility thermodynamic at 24 h [3]: < 10 µg/mL | solubility thermodynamic at 24 h [4]: < 10 µg/mL

SMILES: O=C(O)c1cc(NS(=O)(=O)CCc2ccccc2)cc(-c2ccc(C3CCNCC3)cc2)c1
inhibition ([1]; filed as antagonist): 82.7%

SMILES: O=C(O)c1cc(NS(=O)(=O)c2ccc(-c3ccc(Br)cc3)cc2)cc(-c2ccc(C3CCNCC3)cc2)c1
inhibition ([1]; filed as antagonist): 68.9%

SMILES: CC(C)(C)c1ccc(S(=O)(=O)Nc2cc(C(=O)O)cc(-c3ccc(C4CCNCC4)cc3)c2)cc1
inhibition ([1]; filed as antagonist): 49.6%

SMILES: O=C(O)c1cc(NS(=O)(=O)Cc2ccc([N+](=O)[O-])cc2)cc(-c2ccc(C3CCNCC3)cc2)c1
inhibition ([1]; filed as antagonist): 88.6% | IC50 [2]: 0.0206 µM

SMILES: O=C(O)c1cc(NS(=O)(=O)CCc2ccc(Br)cc2)cc(-c2ccc(C3CCNCC3)cc2)c1
inhibition ([1]; filed as antagonist): 96.7% | IC50 [2]: 0.0196 µM

SMILES: O=C(O)c1cc(NS(=O)(=O)CCc2ccc(C(F)(F)F)cc2)cc(-c2ccc(C3CCNCC3)cc2)c1
inhibition ([1]; filed as antagonist): 99.6% | IC50 [2]: 0.0056 µM | Activity [5]: Dose-dependent-effect | Kd [6]: 1.73 µM | Cmax [7]: 731 ng/mL | half-life [8]: 2.6 h | Tmax [9]: 0.933 h | AUC [10]: 1764 ng·h/mL | Cmax [11]: 984 ng/mL | half-life [12]: 4.5 h | Tmax [13]: 1.55 h | AUC(0-t) [14]: 2170 ng·h/mL | CL/F [15]: 18.6 mL/min/kg | bioavailability [16]: 44% | solubility thermodynamic at 24 h [3]: 108 µg/mL (≈ 203 µM) | solubility thermodynamic at 24 h [4]: 127 µg/mL (≈ 238 µM) | Activity [17]: Active | Activity [18]: Not active; No Significant Interstitial Hemorrhage Observed | Activity [19]: Active; Substantial Reduction Observed | Activity [20]: Active | Activity [21]: Active | Activity [22]: Active | Activity [23]: Dose-dependent-effect | Activity [24]: Active | Activity [25]: Active | Activity [26]: Active | Activity [27]: Active

The next lines start with the values.

inhibition ([1]; filed as antagonist): 50.6%
SMILES: Cc1ccc(S(=O)(=O)Nc2cc(C(=O)O)cc(-c3ccc(C4CCNCC4)cc3)c2)cc1

inhibition ([1]; filed as antagonist): 81%
SMILES: O=C(O)c1cc(NS(=O)(=O)c2ccc(Br)cc2)cc(-c2ccc(C3CCNCC3)cc2)c1

inhibition ([1]; filed as antagonist): 76.2%
SMILES: O=C(O)c1cc(NS(=O)(=O)c2cccc(F)c2)cc(-c2ccc(C3CCNCC3)cc2)c1

inhibition ([1]; filed as antagonist): 90.8% | IC50 [2]: 0.0232 µM
SMILES: O=C(O)c1cc(NS(=O)(=O)c2ccc(C(F)(F)F)cc2)cc(-c2ccc(C3CCNCC3)cc2)c1

inhibition ([1]; filed as antagonist): 85.2% | IC50 [2]: 0.0496 µM
SMILES: O=C(O)c1cc(NS(=O)(=O)c2ccc(F)cc2)cc(-c2ccc(C3CCNCC3)cc2)c1

inhibition ([1]; filed as antagonist): 82.3%
SMILES: O=C(O)c1cc(NS(=O)(=O)c2ccccc2F)cc(-c2ccc(C3CCNCC3)cc2)c1

inhibition ([1]; filed as antagonist): 70.8%
SMILES: COc1ccc(S(=O)(=O)Nc2cc(C(=O)O)cc(-c3ccc(C4CCNCC4)cc3)c2)cc1

Source: ChEMBL document CHEMBL6182883, “Discovery of a series of novel 3-sulfonamido benzoic acid derivatives as promising P2Y14R antagonists for acute lung injury” (Eur J Med Chem, 2025)
